Reference: publication PMC4336141, “Repurposing Auranofin as a Lead Candidate for Treatment of Lymphatic Filariasis and Onchocerciasis” (PLoS Neglected Tropical Diseases, 2015)
Entries after “also recorded” stand apart in the source; their conditions may differ.

Columns and labels:
adult B. malayi = assay: Adult Brugia malayi worm motility assay (Worminator) in vitro; format: cell-based; conditions: for IC50: B. malayi, Adult, Day 3, motility
Experimental: (§1) Adult female and male Brugia (B. malayi and B. pahangi) were shipped from TRS Labs Inc., Athens, GA and assayed using methods described by Marcellino et al. (2012). Individual females were placed in each well of a 24-well plate with media (RPMI-1640 with 25 mM HEPES, 2.0 g/L NaHCO3, 5% heat inactivated FBS, and 1X Antibiotic/Antimycotic solution). Excess media was removed from plates using a Biomek FxP, leaving 500 μL of media per well. Initial screening of a library of FDA-approved compounds, compiled by the Small Molecule Discovery Center at the University of California San Francisco, was conducted at 10 μM per compound, and 1% DMSO was used as a negative control. All drugs including auranofin (Enzo Life Sciences, Farmingdale, NY) were dissolved in DMSO (Sigma-Aldrich, St. Louis, MO) and 10 mM stock solutions were stored at -20°C. Four worms were used as replicates for each concentration and worm plates were kept in a 37°C, 5% CO2 incubator for four days.
(§2) To determine the effect of a compound on worm motility, individual worm movements were counted as the number of pixels displaced per second by each worm in each well using the Worminator. Each plate of worms was video recorded for approximately 60 seconds, and mean movement units (MMUs) were determined for individual worms. Percent inhibition of motility was calculated by dividing the MMUs of the treated worms by the control average MMUs, subtracting the value from 1.0, flooring the values to zero and multiplying by 100%. Videos were recorded for 4 days, including the first day of the assay (Day 0). IC50 determinations were conducted at 10 μM, 3 μM, 1 μM, 0.3 μM, 0.1 μM and 0.03 μM, with 1% DMSO used as a control. IC50 assays were repeated at the same concentrations and at six point, three-fold dilutions from 1 μM to 0.003 μM or 3 μM to […] to ensure that activity was consistent between assays. Prism 4.0 was used to calculate IC50 values using a non-linear regression curve fit. The means of all IC50s with R^2 values greater than or equal to 0.7 are reported.

adult B. pahangi = assay: Adult Brugia pahangi worm motility assay (Worminator) in vitro; format: cell-based; conditions: for IC50: B. pahangi, Adult, Day 3, motility
Experimental: as §1, §2

adult male O. ochengi = assay: Adult male Onchocerca ochengi motility scoring in vitro; format: cell-based; conditions: Day 5, motility
O. ochengi microfilariae = assay: Onchocerca ochengi microfilariae motility in vitro; format: cell-based; conditions: Day 5
Experimental: O. ochengi microfilariae were obtained from the umbilical skin of infected cattle and cultured on confluent monkey kidney epithelial cells for drug testing as previously described.
(§3) Microfilariae (10–15 per well) were cultured in 96-well culture plates in duplicate under the same conditions and drug concentrations as were used for the adult O. ochengi, except that 10 μg/mL ivermectin was used as a positive control. Microfilariae viability was visually scored based on motility reduction using the same scale described above for adult male O. ochengi. Scores were recorded every 24 hours after the addition of drugs for 5 days using an inverted microscope.

L. loa microfilariae = assay: Loa loa microfilariae motility in vitro; format: cell-based; conditions: Day 5
Experimental: Loa loa microfilariae were purified from the blood of a heavily infected subject (having approximately 10,000 microfilariae/mL of blood) using Percoll (GE Healthcare, Piscataway, NJ) gradient centrifugation. Venous blood (10 mL) was collected from consenting, infected individuals in an EDTA tube. The blood was layered on a step-wise Percoll gradient (46% and 43% Percoll prepared in CCM) followed by centrifugation at 400 rcf for 20 minutes. The L. loa microfilariae were recovered in the 43% layer, washed 3 times in CCM and counted.
as §3

adult female B. pahangi = assay: Transmission electron microscopy of treated adult female B. pahangi; format: cell-based, Brugia pahangi; conditions: auranofin 1 μM, 0.3 μM or 0.1 μM overnight, vs 1% DMSO
Experimental: Adult female B. pahangi worms were incubated with either 1 μM, 0.3 μM, or 0.1 μM auranofin, 10 μM flubendazole (as a positive control), or 1% DMSO overnight, then cut into 3 segments separating the anterior, middle and posterior sections. The middle sections were further cut into 1 mm sized pieces in fixative (2.5% glutaraldehyde and 2% paraformaldehyde in 0.1 M sodium cacodylate buffer, pH 7.3–7.4) and stored at 4°C. Middle sections were subsequently treated with 1% tannic acid for 1 hour, followed by three buffer washes before post fixation staining with 2% osmium tetroxide for 1 hour. The samples were washed three times in buffer before dehydration in an ethanol series. Worm sections were then infiltrated with propylene oxide, embedded in epon 812 resin and polymerized in a vacuum oven at 60°C overnight. Ultrathin sections were cut using an RMC MTX ultramicrotome with a Diatome diamond knife followed by post staining of the grids with saturated ethanolic uranyl acetate and Reynolds lead citrate. Samples were imaged on a FEI Tecnai 12 spirit TEM operated at 80 kV. A similar procedure was performed on adult female O. ochengi worm masses that were cultured for 7 days with 10 μM auranofin before fixation of cut pieces of the adult female mass. Untreated adult female masses cultured for 7 days and fixed by the same procedure served as the control.

[1] = design: method as in PMID 6417628; conditions: patients with rheumatoid arthritis treated for an average of 6 months; cited from earlier work

SMILES: CC[PH](CC)(CC)[Au][S][C@@H]1O[C@H](COC(C)=O)[C@@H](OC(C)=O)[C@H](OC(C)=O)[C@H]1OC(C)=O [auranofin, 2,3,4,6-tetra-O-acetyl-1-thio-beta-D-glucopyranosato-S (triethylphosphine) gold]
- IC50 (adult B. malayi; Female): 1100 nM
- IC50 (adult B. malayi; Male): 300 nM
- inhibition of motility (adult B. malayi; female B. malayi, 3 μM, within 18 hours of incubation): 97%
- IC50 (adult B. pahangi; Female): 500 nM
- IC50 (adult B. pahangi; Male): 100 nM
- inhibition of motility (adult B. pahangi; female B. pahangi, 3 μM, within 18 hours of incubation): 97%
- IC50 (adult male O. ochengi): 400 nM
- IC50 (O. ochengi microfilariae): 3000 nM
- IC50 (L. loa microfilariae): 12800 nM
- ultrastructure (TEM) of adult female B. pahangi (adult female B. pahangi): considerable damage in the hypodermal region; also recorded: extensive damage to Wolbachia in the hypodermal area
- side effects [1]: few side effects, with the most common side effect being diarrhea
